In patent US4146615A, “Chrysanthellum plant extract” (Laboratoires Sarget, priority 1977, dated 1979):
Read-outs that look alike come from different tables or passages of the source. Values belong to the compound of their own block, whether it stands above or below them.

Legend:
capillary resistance = assay: Capillaroprotector effects, capillary resistance; format: in vivo, rat
Protocol: The capillary resistance was determined by a variant of the method of Charlier R., Hosslet A., and Colot M., Arch. Inter. Physiol. Biochem., 71, 1-45 (1963) in Sprague Dowley EOPS rats. The products were administered i.p.

capillary permeability = format: in vivo, rat
Protocol: The capillary permeability was determined by the method of […]., and […]., Arch. Inter. Physiol. […] The products were administered i.p. for capillary permeability, the ED 50 as well as the regression analysis equation expressing the effect on the capillary permeability as a function of the dose expressed in mg/kg.

[1] = test system: edema of the rat ear induced by croton oil; assay: Local anti-inflammatory action, edema of the rat ear induced by croton oil (Le Douarec); format: in vivo; settings: topical
Protocol: This was determined by the technique of edema of the rat ear induced by croton oil according to the method of Le Douarec. The irritant mixture was prepared from two solutions: solution A which contained 10 ml of pyridine, 2.5 ml of water and 12.5 ml of ethyl acetate and in which the test sample was dissolved; solution B, which contained 1 ml of croton oil and 24 ml of ethyl acetate. The two solutions A and B were mixed together before use. Edema was induced by swabbing the ear with a cotton wad moistened with the irritant mixture (about 1 ml of mixture per rat).

[2] = test system: male mice of the Swiss EOPS strain; assay: Analgesic activity, hot plate test (thermal stimulus); format: in vivo, mouse; settings: 56° C., reaction time ≥150% of reference time
Protocol: Experiments were performed on male mice of the Swiss EOPS strain and two stress-producing stimuli were used: the P.B.Q. test (chemical stimulus) and the hot plate test (thermal stimulus). […] The doses are expressed in mg/kg of animal weight.

[3] = test system: male mice of the Swiss EOPS strain; assay: Analgesic activity, P.B.Q. test (chemical stimulus); format: in vivo, mouse; settings: 10 minutes before P.B.Q., range in parentheses
Protocol: Experiments were performed on male mice of the Swiss EOPS strain and two stress-producing stimuli were used: the P.B.Q. test (chemical stimulus) and the hot plate test (thermal stimulus).
An aqueous alcoholic solution of 0.02% phenyl p-benzoquinone (P.B.Q.) was administered i.p. to the animals; at the end of 5 minutes this induced abdominal contractions and extension of the mice's hind paws.
The doses are expressed in mg/kg of animal weight.

EOPS mouse = settings: Mice
Protocol: Acute toxicity was determined in the EOPS mouse, the standard Wistar rat and the EOPS Wistar rat for several methods of administration. The products were administered orally in suspension in gum julep, and i.p. and i.v. in a physiological solution neutralized with NaOH.
In all cases the doses are expressed in mg per kg of animal weight.

EOPS Wistar rat = assay: Acute toxicity in the EOPS Wistar rat (Litchfield and Wilcoxon); format: in vivo; settings: EOPS Wistar rats, IP
[4] = test system: male standard Wistar rats; assay: Intoxication by slow IV perfusion in the anesthetized rat
Protocol: The carotid pressure, the heart rate, the respiration and the electrocardiogram were recorded on lead DII. […] The products were administered in solution in physiological serum. The solutions were neutralized with bicarbonate.

Edema from Carrageenan = assay: Anti-inflammatory activity, edema test with carrageenan; format: in vivo, rat; settings: i.p.
Protocol: This effect was determined in the edema test with carrageenan in male EOPS Wistar rats. A volume of 0.1 ml of a suspension of 0.5% carrageenan in physiologic serum was injected into the muscle bundle of the metatarsal region of the animal's hind paws. The test sample was administered i.p. in neutralized physiologic solution simultaneously with the carrageenan. The edema was measured by plethysmometry 2, 3 and 6 hours after the administration of carrageenan.

constraint ulcer = assay: Anti-ulcer activity, constraint ulcer test (Bonfils); format: in vivo, rat; settings: 50 mg/kg PO
Protocol: The anti-ulcer activity was determined in female EOPS Wistar rats in the constraint ulcer test by the technique of Bonfils.
After 24 hours without food the rats, lightly anesthetized with ether, were immobilized in pliable metal-lattice corselets. The paws were tied together in pairs. The rats were suspended in their cages so that they could not touch any point of support. Just before anesthesia the test samples were administered PO in suspension in gum julep in a volume of 0.5 cc/100g. The animals were left constrained for 24 hours and then killed with ether. The stomachs were removed and cut along the greatest curvature. They were stretched out on cork slabs covered with glazed paper to facilitate examination and photographing. A scale of 0 to 4 was used for the number and dimension of ulcerations (0 for no ulceration, 4 for more than 4 ulcers or a perforation).

Capillary permeability regression equation, constant term (capillary permeability; rat, not told): 159
Capillary permeability regression equation, slope (coefficient of X) (capillary permeability; rat, not told): -6.50
Compound: Sodium escinate
Capillary Resistance activity (capillary resistance; dose 5 mg/kg i.p.): 26 ± 15 ucmHg/hour
Capillary Resistance, % of animals with activity ≥25 (capillary resistance; dose 5 mg/kg i.p.): 60%
Capillary Resistance activity (capillary resistance; dose 10 mg/kg i.p.): 78 ± 24 ucmHg/hour
Capillary Resistance, % of animals with activity ≥25 (capillary resistance; dose 10 mg/kg i.p.): 100%
Capillary Permeability ED 50 (capillary permeability; i.p., standard Wistar rat, range in parentheses): 12 (10-15) mg/kg

Compound: CC(=O)Oc1ccccc1C(=O)O [Aspirin]
% of Activity (inhibition of the edema) ([1]; 25 mg/ml of mixture): 27%
% of Activity (inhibition of the edema) ([1]; 50 mg/ml of mixture): 65%

Compound: CCCCC1C(=O)N(c2ccccc2)N(c2ccccc2)C1=O [Phenylbutazone]
ED50 ([2]; Mus musculus, ip, read-out: Hot Plate Test AD 50): 125 mg/kg
ED50 ([3]; Mus musculus, ip, read-out: P.B.Q. Test ED 50): 14 mg/kg

Compound: β-aescine
MTD (maximum tolerated dose) (EOPS mouse; IP): 2.5 mg per kg
MTD (maximum tolerated dose) (EOPS mouse; IV): < 1.25 mg per kg
MTD (maximum tolerated dose) (EOPS Wistar rat): < 6.25 mg per kg
arterial pressure ([4]; 1 mg/kg/min): a slight hypotension was observed at the beginning of the perfusion; the arterial pressure next increased, then abruptly dropped to end rapidly in death
arterial pressure and heart and respiratory rates ([4]; up to 0.1 mg/kg/min): tended to increase
Edema from Carrageenan ED 50 (Edema from Carrageenan; 2 hours after carrageenan): 6.5 mg/kg
Edema from Carrageenan ED 50 (Edema from Carrageenan; 3 hours after carrageenan): 8.5 mg/kg
Edema from Carrageenan ED 50 (Edema from Carrageenan; 6 hours after carrageenan): 7.5 mg/kg
% of Anti-Ulcer Activity (constraint ulcer): 13%
Hot Plate Test AD 50 ([2]; i.p.): 4.5 mg/kg
P.B.Q. Test ED 50 ([3]; i.p.): 2.7 (1.7-7.5) mg/kg
